Laboratory results reported in patent US20170114093A1, “Methods of Treatment and Prevention of Disease by Arginine-rich Compositions that Induce Cytoprotection and Neuroprotection” (priority 2015, published 2017).
“Also recorded” adds a separate entry of the source.

Experiments:
SAPK/JNK = experiment: Western blot of phospho-SAPK/JNK (cell death signaling) in OGD-treated primary neuronal cultures; type: cell-based, rat; details: after OGD
Excerpt: JNK signaling is widely considered to be an indicator of cell death signaling.
Dissociated primary neuronal cell cultures treated in the same manner as indicated in Example 2 were collected and their cells lysed. Cellular proteins were precipitated and denatured for immunohistochemical analysis by Western Blot. Phospho-SAPK/JNK ([…]) antibody detects endogenous levels of p46 and p54 SAPK/JNK dually phosphorylated at threonine 183 and tyrosine 185. Levels of The stress-activated protein kinase/Jun-amino-terminal kinase SAPK/JNK are widely considered to be molecular sequelae of the activation of cell death pathways that lead to apoptosis.

[1] = test system: primary rat cortical neurons; experiment: Oxygen glucose deprivation (OGD, 90 min) of primary neuronal cultures, cell viability by MTT reduction; type: cell-based; details: for level of protection from OGD, compared with Compound 4: 90 min OGD; for protection of cortical rat neurons from the impact of OGD (cell viability): pre-incubation 30 min before 90 min OGD, MTT
Procedure: FIGS. 1 and 2 are histograms showing the cell viability of primary rat cortical neurons that had been exposed to ninety (90) minutes oxygen glucose deprivation. Pre-incubation of an arginine-rich polypeptide [RRRRRRRRR (SEQ ID: 4)]
Dissociated primary neuronal cell cultures were prepared from rat brains at 37° C. in a humidified atmosphere containing 5% CO2 and […] and grown to confluence in glucose-containing media. Indicated compounds were applied thirty (30) minutes before cultures were placed in an environment of oxygen glucose deprivation (OGD). OGD was achieved using glucose-free media and a humidified atmosphere containing 5% CO2 and 95% N2. OGD was continued for ninety (90) minutes and terminated by return to baseline conditions with glucose and O2 restored. Reduction of 3-(4,5-dimethyl-2-thiazolyl)-2,5-diphenyltetrazolium bromide (MTT) by cellular dehydrogenases measured mitochondrial activity and cell health. […] This model is a dissociated cell preparation, therefore vasculature is absent, therefore the activity of Compound 4 (SEQ ID NO: 4), an inventive Arginine rich polypeptide, is shown to be independent of changes to vascular tone and indicates protection from a novel mechanism of action.

## C[C@H](NC(c1cccc2[nH]c(=O)c(=O)[nH]c12)P(=O)(O)O)c1ccc(Br)cc1 (some centres unmarked) [NVPAAM077]
SAPK/JNK; 100 nM
  level of JNK cell death signaling, compared with Compound 4 2 μM: comparable
[1]; 100 nM
  level of protection from OGD, compared with Compound 4: comparable

## CCRRRRRRR [Control peptide; cysteine-arginine peptide of the kind claimed in WO2013158739]
[1]; 2 μM
  protection of cortical rat neurons from the impact of OGD (cell viability): no significant neuroprotection; also recorded: no significant neuroprotective effect
[1]; 2 μM, listed as ccrrrrrrr
  protection of cortical rat neurons from the impact of OGD (cell viability): no significant neuroprotection; also recorded: no significant neuroprotective effect
[1]; 10 μM
  protection of cortical rat neurons from the impact of OGD (cell viability): no significant neuroprotection; also recorded: no significant neuroprotective effect
[1]; 10 μM, listed as ccrrrrrrr
  protection of cortical rat neurons from the impact of OGD (cell viability): no significant neuroprotection; also recorded: no significant neuroprotective effect

## C[C@@H]([C@@H](O)c1ccc(O)cc1)N1CCC(O)(c2ccccc2)CC1 [CP 101 606]
SAPK/JNK; 10 μM
  level of JNK cell death signaling, compared with Compound 4 2 μM: comparable
[1]; 10 μM
  level of protection from OGD, compared with Compound 4: comparable

## RRRRRRRRR (cell penetrating peptide) [Compound 4]
SAPK/JNK; 2 μM, p<0.05, n=3
  p54 and p48 JNK cell death signaling (Western blot): significantly suppressed
[1]; 2 μM
  protection of cortical rat neurons from the impact of OGD (cell viability): significant protection
[1]; 10 μM
  protection of cortical rat neurons from the impact of OGD (cell viability): significant protection
